In article PMC10202811 (Nature Medicine, 2023):
Like-named read-outs stand apart in the source and are kept apart here.

Experiment: Plasma pharmacokinetics of lorlatinib at steady state (LC-MS/MS, non-compartmental analysis)
Type: in vivo, human
Settings: for Lambda_z: in h-1 (unit assumed); for Tlag: unit assumed; for Cmax: read-out: Cmax; for AUC: read-out: AUC_TAU
Text: Lorlatinib was isolated from human plasma by a liquid-iquid extraction procedure. […] A linear-log trapezoidal method was used [NT] A best-fit method was used to estimate terminal elimination and to extrapolate any plasma concentration versus time profiles to compute [NT].

[1] = Cycle 1 Day 15, Cohort A1, 115 mg/m2 per dose, individual patients
[2] = Cycle 1 Day 15, Cohort A1, 115 mg/m2 per dose, individual patients, in h (unit assumed)
[3] = Cycle 1 Day 15, Cohort A1, 115 mg/m2 per dose, individual patients, in ng/mL
[4] = Cycle 1 Day 15, Cohort A2, 100 mg per dose, individual patients
[5] = Cycle 1 Day 15, Cohort A2, 150 mg per dose, individual patients
[6] = Cycle 1 Day 15, Cohort A2, 150 mg per dose, individual patients, in h (unit assumed)
[7] = Cycle 1 Day 15, patient N0773, Cohort B2, 115 mg/m2 per dose, Dose 75
[8] = Cycle 1 Day 15, patient N0773, Cohort B2, 115 mg/m2 per dose, Dose 75, in h (unit assumed)
[9] = human, in vivo, 115 mg/m2, Cohort A1, 115 mg/m2 per dose, C1D15, Geometric Mean, N 6
[10] = human, in vivo, 115 mg/m2, Cohort A1, 115 mg/m2 per dose, C1D15, Median, N 6
[11] = human, in vivo, 115 mg/m2, Cohort B2, 115 mg/m2 per dose, C1D15, Geometric Mean, N 6
[12] = human, in vivo, 115 mg/m2, Cohort B2, 115 mg/m2 per dose, C1D15, Median, N 6
[13] = human, in vivo, 115 mg/m2, Cycle 1 Day 1, Cohort B2, 115 mg/m2 per dose

SMILES: C[C@H]1Oc2cc(cnc2N)-c2c(nn(C)c2C#N)CN(C)C(=O)c2ccc(F)cc21 [Lorlatinib, (10R)-7-amino-12-fluoro-2,10,16-trimethyl-15-oxo-10,15,16,17-tetrahydro-2H-8,4-(metheno)pyrazolo[4,3-h][2,5,11]-benzoxadiazacyclotetradecine-3-carbonitrile]
- Swing [1]: 8.184
- Swing_Tau [1]: 8.184
- Tlast [1]: 24 h
- Vz_F [1]: 274.2
- HL_Lambda_z [2]: 12
- Tmin [2]: 0
- Lambda_z [1]: 0.05778
- Cavg [3]: 341.9
- Clast [3]: 147
- Clast_pred [3]: 144.8
- Cmin [3]: 147
- Ctau [3]: 147
- Tlag [1]: 0 h
- AUC_TAU_%Extrap [4]: 0%
- Tlast [4]: 24 h
- Tmax (Cycle 1 Day 15, Cohort A2, 100 mg per dose, individual patients, in h (unit assumed)): 2
- Tmax (Cycle 1 Day 15, Cohort A2, 100 mg per dose, individual patients, listed as lorlatinib, in h (unit assumed)): 2
- Tlag [4]: 0 h
- AUC_TAU_%Extrap [5]: 0%
- Tlast [5]: 24 h
- MRTINF_obs [6]: 20.95
- MRTINF_pred [6]: 20.85
- Tmax [6]: 2
- Tmin [6]: 0
- Clast_pred (Cycle 1 Day 15, Cohort A2, 150 mg per dose, individual patients, in ng/mL): 129.9
- AUCINF_pred (Cycle 1 Day 15, Cohort A2, 150 mg per dose, individual patients, in ng·h/mL (unit assumed)): 8874
- Tlag [5]: 0 h
- AUMC_TAU [7]: 28139.0694
- Accumulation_Index [7]: 1.002
- CLss_F [7]: 10.79
- Cmax_D [7]: 23.73
- Fluctuation% [7]: 464.7
- Fluctuation%_Tau [7]: 613.5
- Swing [7]: 3.101
- Swing_Tau [7]: 559.2
- Tlast [7]: 6 h
- Vz_F [7]: 40.19
- HL_Lambda_z [8]: 2.582
- Tmin [8]: 6
- Lambda_z [7]: 0.2684
- Cavg (Cycle 1 Day 15, patient N0773, Cohort B2, 115 mg/m2 per dose, Dose 75, in ng/mL): 289.6
- Tlag [7]: 0 h
- Tmax (human, in vivo, 60 mg/m2, Cohort A1, 60 mg/m2 per dose, C1D15, Geometric Mean, N 3, read-out: Tmax): 1.59 h
- Cmax (human, in vivo, 75 mg/m2, Cycle 1 Day 1, Cohort A1, 75 mg/m2 per dose, individual patients): 467 ng/mL
- AUC [9]: 8640 ng·h/mL
- Cmax [9]: 1210 ng/mL
- Tmax (human, in vivo, 115 mg/m2, Cohort A1, 115 mg/m2 per dose, C1D15, Geometric Mean, N 6, read-out: Tmax): 1.59 h
- AUC [10]: 8570 ng·h/mL
- Cmax [10]: 1280 ng/mL
- Tmax (human, in vivo, 115 mg/m2, Cohort A1, 115 mg/m2 per dose, C1D15, Median, N 6, read-out: Tmax): 1.5 h
- AUC [11]: 7950 ng·h/mL
- Cmax [11]: 1460 ng/mL
- Tmax (human, in vivo, 115 mg/m2, Cohort B2, 115 mg/m2 per dose, C1D15, Geometric Mean, N 6, read-out: Tmax): 1.12 h
- AUC [12]: 6940 ng·h/mL
- Cmax [12]: 1560 ng/mL
- Tmax (human, in vivo, 115 mg/m2, Cohort B2, 115 mg/m2 per dose, C1D15, Median, N 6, read-out: Tmax): 1 h
- MRT last (human, in vivo, 115 mg/m2, Cycle 1 Day 1, Cohort A1, 115 mg/m2 per dose): 11.1 h
- Tmax (human, in vivo, 115 mg/m2, Cycle 1 Day 1, Cohort A1, 115 mg/m2 per dose, read-out: Tmax): 1 h
- AUC(0-t) [13]: 17700 ng·h/mL
- MRT last [13]: 8.5 h
